Measured values taken from patent publication US5552267A, “Solution for prolonged organ preservation” (priority 1994, dated 1996).

Assays:
[1] = test system: cGMP-dependent protein kinase; details: vs cAMP-dependent protein kinase; cited from earlier work
lung [2] = assay: orthotopic rat left lung transplantation, cGMP series (hemodynamics, oxygenation, recipient survival); format: in vivo, rat (male Lewis)
Procedure: Orthotopic rat left lung transplantation was accomplished using inbred male Lewis rats (250-300 gms), using a modification of a previously described technique^29. The donor rat was anesthetized and heparinized (500 U intravenously), and endotracheal intubation was performed by inserting a 16 gauge angiocatheter into the trachea using blunt cervical dissection, after which the rat was ventilated with room air at a constant rate (100 breaths/minute) and tidal volume (2.5 ml), using a Harvard rodent ventilator. […] The pulmonary artery (PA) and pulmonary vein (PV) were divided, the bronchus ligated with the lung partially inflated and then divided, and the lung removed. The vascular stumps were each pulled through a small plastic cylinder, and a lip of vessel was turned back around the edge and secured in place with a suture to form a "cuff." A small plastic cylinder was inserted into the bronchial stump and secured, and the lung was then wrapped in gauze and submerged in cold preservation solution for the desired interval.
The recipient rat (gender/size/strain-matched) was similarly anesthetized and intubated (ventilated with 100% oxygen), but not heparinized. A left thoracotomy was performed, the hilum was dissected, and the left bronchus, PA, and PV were isolated, cross-clamped, divided and the native lung was removed from the field. The PA and PV stumps were rinsed with heparinized saline to remove any clot. The donor lung was brought onto the surgical field, and the cylinder (bronchus) and cuffs (PA and PV) were connected rapidly to their respective structures with a simple staying suture. This cuff technique permitted rapid approximation of donor and recipient tissues with no contact of a foreign substance with the luminal vascular surface. The hilar cross-clamp was released, re-establishing blood flow, and the bronchus tie was removed, enabling gas exchange. A snare was then passed around the right PA, and a Millar catheter (2F; Millar Instruments,Houston, Tex.) was introduced through a small hole (surrounded by a pursestring) into the main PA; similarly, a Millar catheter was introduced into the left atrium (LA). A flow probe (Transonics, Ithaca, N.Y.) was then placed around the main PA. Arterial blood gas sampling performed via the left femoral artery.
Online hemodynamic monitoring was accomplished using MacLab and a Macintosh IIci computer. The hemodynamic parameters that were measured included PA pressure (mm Hg), blood flow (ml/min), LA pressure (mm Hg), as well as arterial oxygen tension (mm Hg) during inspiration of 100% oxygen; pO2 was analyzed with a model ABL-2 dissolved gas analyzer (Radiometer, Copenhagen, Denmark). Pulmonary vascular resistances (PVRs) were calculated as [mean PA pressure-LA pressure]/PA flow. The native lung supported the recipient during the period of warm ischemia (the period during which the donor lung was removed from cold preservation until the time of reperfusion, <10 min. in all instances), but immediately following rapid hemodynamic instrumentation and acquisition of baseline measurements, the native (right) PA was then ligated, and serial measurements (representative solely of the transplanted lung) were taken every five minutes for 30 minutes. Because the native lung was effectively removed from the circulation by ligation of the right PA, these measurements represent function of the transplanted lung. Recipient death was identified by the cessation of cardiac mechanical activity observed through the thoracotomy.
Preservation solutions were freshly made and coded by a technician not otherwise involved in the experiments, according to a general plan which included both control and experimental groups. […]

[3] = test system: nitric oxide in expired air; details: in vivo; cited from earlier work
heart = details: in vivo; cited from earlier work
[4] = test system: platelet accumulation in lung graft; assay: graft platelet accumulation (111Indium-labelled platelets); format: in vivo, rat; details: NTG 0.1 mg/mL in EC, 6 h
Procedure: Graft platelet accumulation was determined using ^111 Indium-labelled platelets, prepared as described^39. Blood (5.0 mL) was taken from a gender/strain matched donor rat and heparinized (2500 units). Platelets were isolated by differential centrifugation, first at 300 g for 5 minutes to obtain platelet-rich plasma, which was then washed 3 times at 2,000 g for 15 minutes in 10 ml of acid-citrate-dextrose-anticoagulant (ACD-A; citric acid 38 mM, sodium citrate 75 mM, glucose 135 mM). The pellet was suspended in 5 mL of ACD-A, centrifuged at 100 g for 5 minutes to remove contaminating red blood cells, and the supernatant collected. ^111 Indium oxyquinoline (70 μL of 1 mCi/mL, Amersham Mediphysics, Arlington Heights, Ill.) was added with gentle shaking for 30 minutes at room temperature. […] One minute following platelet infusion (immediately prior to reperfusion), 0.5 mL of blood was taken from the left atrium to determine blood radioactivity, to ascertain blood platelet concentrations to normalize for variations in blood loss during surgery. Five minutes following reperfusion, the native right pulmonary artery was ligated, the graft was removed 10 minutes thereafter, and ^111 Indium-platelet deposition quantified by gamma counting. Platelet accumulation was expressed as the ratio of graft radioactivity to blood radioactivity normalized to dry weight.

lung [5] = assay: orthotopic rat left lung transplantation, nitroglycerin series; format: in vivo, rat (male Lewis)
[6] = test system: neutrophil accumulation in lung graft; assay: lung graft myeloperoxidase, nitroglycerin series; format: in vivo, rat; details: NTG 0.1 mg/mL in EC, 6 h
Procedure: Thirty minutes following ligation of the native right pulmonary artery, or at the time of recipient death, transplanted lungs were removed, rinsed briskly in physiologic saline, and snap frozen in liquid nitrogen until the time of myeloperoxidase or TBARs assay.
Tissue was homogenized in phosphate buffer (50 mM, pH 5.5, 5 ml/gm of tissue) containing hexadecyltrimethyl ammonium bromide (0.5%, Sigma). The assay was performed, as previously described^35, by thawing the sample, centrifuging at 40,000 g for 15 minutes, and decanting the supernatant, which was assayed for myeloperoxidase activity using a standard chromogenic spectrophotometric technique in which test sample (0.03 mL) was added to phosphate buffer (0.97 mL) containing O-dianisidinedihydrochloride (Sigma) and hydrogen peroxide (0.0005%), and change in absorbance at 460 nm was measured over 1 minute (increase in OD was linear over this time interval).

[7] = 6 h in EC, 8-Br-cGMP 0.5 mM where added
[8] = 6 h in EC, NTG 0.1 mg/mL where added

Compound: Nc1nc2c(nc(Br)n2[C@@H]2O[C@@H]3COP(=O)(O)O[C@H]3[C@H]2O)c(=O)[nH]1 [8-Br-cGMP, 8-bromoguanosine-3'5' cyclic monophosphate]
- times more potent at stimulating cGMP- than cAMP-dependent protein kinase [1]: 500 times
- recipient survival (lung [2]; 4 h preservation in LR): 86%
- arterial oxygenation (lung [2]; [7]): 474±41 mm Hg
- pulmonary arterial blood flow (lung [2]; [7]): 26 ± 2.3 mL/min
- pulmonary vascular resistance (lung [2]; [7]): 1.1±0.14 Woods units×10^-3
- recipient survival (lung [2]; [7]): 100%
- concentration of maximal beneficial effect (lung [2]; range 0.005 to 0.5 mM, 6 h in EC): 0.5 mM

Compound: O=[N+]([O-])OCC(CO[N+](=O)[O-])O[N+](=O)[O-] [NTG, nitroglycerin]
- nitric oxide in expired air [3]: increase nitric oxide in expired air
- effect in cardiac ischemia models (heart): blunt myocardial injury and neutrophil accumulation during reperfusion
- graft platelet accumulation [4]: significant decline in both neutrophil and platelet accumulation
- pulmonary artery flushing time (lung [5]; 30 mL at constant pressure during harvest): 86.4 ± 4.9 s
- recipient survival (lung [5]; 6 h in EC, 30 min, supplements NTG 0.1 mg/mL, hydralazine 0.02 μg/mL): 100%
- arterial oxygenation (lung [5]; [8]): 501±31 mm Hg
- pulmonary arterial flow (lung [5]; [8]): 21.4 ± 2.9 mL/min
- pulmonary vascular resistance (lung [5]; [8]): 1.4±0.1 ×10^3 Woods units
- concentration of maximal beneficial effect (lung [5]; range 0.001 to 0.1 mg/mL): 0.1 mg/mL
- graft neutrophil accumulation [6]: significant decline in both neutrophil and platelet accumulation
